Measured values published in article doi:10.1101/2023.07.29.547699, “Bacterial pathogens deliver water/solute-permeable channels as a virulence strategy” (bioRxiv, 2023).

Legend:
DspE [1] = target: T1, DspE (Erwinia amylovora, UniProt O54581); test: two-electrode voltage clamp, Xenopus oocytes; type: cell-based
T1 construct: full-length untagged ORF in pGH19, cRNA-injected Xenopus laevis oocytes; printed UniProt entry is strain Ea321, strain of the oocyte ORF not restated

DspE [2] = target: T1, DspE; test: fluorescent dye uptake, Xenopus oocytes; type: cell-based; conditions: permeation through channel; ND96 bath saline with fluorescein, 20 h
AvrE [3] = target: T2, AvrE (Pseudomonas syringae group genomosp. 3, UniProt Q887C9); test: fluorescent dye uptake, Xenopus oocytes; type: cell-based; conditions: permeation through channel; ND96 bath saline with fluorescein, 20 h
T2 construct: full-length untagged ORF in pGH19, cRNA-injected Xenopus laevis oocytes
T2 sequence (Q887C9 whole entry): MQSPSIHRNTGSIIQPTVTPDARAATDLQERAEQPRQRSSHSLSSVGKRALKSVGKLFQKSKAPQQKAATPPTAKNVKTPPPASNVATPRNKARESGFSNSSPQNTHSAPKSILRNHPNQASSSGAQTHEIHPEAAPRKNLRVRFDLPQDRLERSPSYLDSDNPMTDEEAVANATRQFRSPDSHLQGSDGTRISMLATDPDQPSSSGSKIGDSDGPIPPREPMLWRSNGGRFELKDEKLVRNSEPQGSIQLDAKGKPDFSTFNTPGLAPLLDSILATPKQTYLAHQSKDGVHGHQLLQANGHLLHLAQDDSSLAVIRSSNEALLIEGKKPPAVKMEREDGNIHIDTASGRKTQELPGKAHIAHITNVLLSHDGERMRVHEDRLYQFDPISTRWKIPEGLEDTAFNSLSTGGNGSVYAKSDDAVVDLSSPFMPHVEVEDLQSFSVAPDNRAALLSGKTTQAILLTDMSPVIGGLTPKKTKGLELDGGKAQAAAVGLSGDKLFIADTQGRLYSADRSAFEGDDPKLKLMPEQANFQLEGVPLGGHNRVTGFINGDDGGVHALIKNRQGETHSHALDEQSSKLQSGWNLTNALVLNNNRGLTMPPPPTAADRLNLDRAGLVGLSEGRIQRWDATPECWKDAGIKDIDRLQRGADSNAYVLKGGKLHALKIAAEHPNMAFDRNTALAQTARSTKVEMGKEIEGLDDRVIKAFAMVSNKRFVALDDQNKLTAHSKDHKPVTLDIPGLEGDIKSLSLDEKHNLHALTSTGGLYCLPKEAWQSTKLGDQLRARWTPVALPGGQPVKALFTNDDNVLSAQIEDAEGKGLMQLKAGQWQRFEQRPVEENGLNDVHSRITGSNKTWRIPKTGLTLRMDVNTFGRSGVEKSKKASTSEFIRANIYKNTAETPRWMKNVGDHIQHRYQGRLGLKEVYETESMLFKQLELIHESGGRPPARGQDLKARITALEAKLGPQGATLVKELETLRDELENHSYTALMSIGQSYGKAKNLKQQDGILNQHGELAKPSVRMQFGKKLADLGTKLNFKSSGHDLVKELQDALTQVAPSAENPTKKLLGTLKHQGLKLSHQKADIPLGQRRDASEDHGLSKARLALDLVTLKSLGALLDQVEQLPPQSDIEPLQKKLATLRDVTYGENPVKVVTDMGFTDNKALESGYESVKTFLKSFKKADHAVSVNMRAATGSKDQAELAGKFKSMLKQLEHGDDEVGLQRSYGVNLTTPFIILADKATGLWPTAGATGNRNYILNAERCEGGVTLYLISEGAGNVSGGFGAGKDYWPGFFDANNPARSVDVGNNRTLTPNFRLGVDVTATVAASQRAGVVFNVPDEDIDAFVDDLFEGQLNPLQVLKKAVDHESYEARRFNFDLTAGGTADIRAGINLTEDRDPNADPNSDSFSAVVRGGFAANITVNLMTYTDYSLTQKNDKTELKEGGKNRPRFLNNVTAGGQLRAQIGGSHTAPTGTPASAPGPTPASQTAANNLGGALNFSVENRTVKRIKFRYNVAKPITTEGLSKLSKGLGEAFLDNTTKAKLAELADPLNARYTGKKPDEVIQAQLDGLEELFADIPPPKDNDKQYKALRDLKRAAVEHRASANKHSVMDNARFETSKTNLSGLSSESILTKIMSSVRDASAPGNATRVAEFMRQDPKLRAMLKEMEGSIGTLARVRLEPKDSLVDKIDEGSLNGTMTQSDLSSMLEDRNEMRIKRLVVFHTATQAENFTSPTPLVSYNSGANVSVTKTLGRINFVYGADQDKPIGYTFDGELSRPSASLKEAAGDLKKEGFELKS

AvrE [4] = target: T2, AvrE; test: two-electrode voltage clamp, Xenopus oocytes; type: cell-based; conditions: 50 mV test pulse; ND96 saline, pH 7.5; inhibitor in bath saline
DspE (MBP-DspE) = target: T3, DspE (MBP-DspE) (Erwinia amylovora, UniProt O54581); test: liposome carboxyfluorescein release inhibition; type: biochemical; conditions: 20 mM HEPES, 300 mM NaCl, pH 8.0; 0.05-0.15 μM DspE; soybean lipid liposomes; channel blocker
T3 construct: full-length, N-terminal MBP-His8-PPX-FLAG tag kept; E. coli BL21(DE3); reconstituted in soybean liposomes; printed UniProt entry is strain Ea321, cloned gene from Ea273

T1 sequence (O54581 whole entry): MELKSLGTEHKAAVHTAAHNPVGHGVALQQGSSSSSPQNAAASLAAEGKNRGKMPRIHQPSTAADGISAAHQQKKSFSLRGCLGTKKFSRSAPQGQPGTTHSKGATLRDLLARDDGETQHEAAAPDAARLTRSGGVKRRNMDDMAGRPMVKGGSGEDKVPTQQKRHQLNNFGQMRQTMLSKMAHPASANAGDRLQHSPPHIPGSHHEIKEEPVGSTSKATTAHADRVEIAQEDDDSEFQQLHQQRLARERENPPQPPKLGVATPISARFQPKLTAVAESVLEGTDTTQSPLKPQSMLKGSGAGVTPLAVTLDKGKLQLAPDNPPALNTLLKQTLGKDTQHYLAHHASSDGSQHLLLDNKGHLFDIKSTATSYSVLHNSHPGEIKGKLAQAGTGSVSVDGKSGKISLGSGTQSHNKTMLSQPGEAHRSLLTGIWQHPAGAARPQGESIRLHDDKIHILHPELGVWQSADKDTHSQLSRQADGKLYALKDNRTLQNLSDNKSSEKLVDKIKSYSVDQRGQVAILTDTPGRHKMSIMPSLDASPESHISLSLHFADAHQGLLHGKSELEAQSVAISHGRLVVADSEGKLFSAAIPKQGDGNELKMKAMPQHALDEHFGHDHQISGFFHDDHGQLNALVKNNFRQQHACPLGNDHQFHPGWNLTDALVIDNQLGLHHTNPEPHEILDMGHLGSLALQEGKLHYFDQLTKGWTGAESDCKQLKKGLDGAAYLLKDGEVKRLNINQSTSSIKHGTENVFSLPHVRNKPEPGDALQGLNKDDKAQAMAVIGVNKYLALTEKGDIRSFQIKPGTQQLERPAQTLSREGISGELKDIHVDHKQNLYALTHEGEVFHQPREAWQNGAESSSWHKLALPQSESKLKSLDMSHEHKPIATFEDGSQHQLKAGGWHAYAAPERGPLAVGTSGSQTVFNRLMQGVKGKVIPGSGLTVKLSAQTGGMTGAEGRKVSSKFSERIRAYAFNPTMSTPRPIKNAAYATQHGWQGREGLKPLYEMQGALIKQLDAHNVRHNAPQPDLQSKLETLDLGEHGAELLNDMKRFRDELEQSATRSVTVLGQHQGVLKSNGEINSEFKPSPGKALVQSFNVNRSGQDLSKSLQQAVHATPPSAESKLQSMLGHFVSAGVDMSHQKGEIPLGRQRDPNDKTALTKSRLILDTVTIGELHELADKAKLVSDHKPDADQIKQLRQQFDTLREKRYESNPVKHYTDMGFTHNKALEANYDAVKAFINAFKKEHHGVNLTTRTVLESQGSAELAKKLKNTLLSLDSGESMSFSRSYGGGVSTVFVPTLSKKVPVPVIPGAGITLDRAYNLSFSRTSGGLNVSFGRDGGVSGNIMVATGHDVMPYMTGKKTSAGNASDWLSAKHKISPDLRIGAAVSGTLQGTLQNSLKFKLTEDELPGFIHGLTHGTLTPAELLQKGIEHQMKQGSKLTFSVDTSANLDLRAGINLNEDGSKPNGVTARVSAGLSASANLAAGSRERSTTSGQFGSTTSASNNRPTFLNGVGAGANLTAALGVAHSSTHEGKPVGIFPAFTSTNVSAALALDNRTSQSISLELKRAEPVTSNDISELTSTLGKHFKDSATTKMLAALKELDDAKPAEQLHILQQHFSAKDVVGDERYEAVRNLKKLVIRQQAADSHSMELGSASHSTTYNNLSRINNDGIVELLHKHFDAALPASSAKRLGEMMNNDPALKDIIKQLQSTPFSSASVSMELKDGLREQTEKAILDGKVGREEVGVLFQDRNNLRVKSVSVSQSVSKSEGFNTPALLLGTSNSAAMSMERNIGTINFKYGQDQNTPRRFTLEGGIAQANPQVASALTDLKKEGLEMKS

With `NCCNC(=O)CCN(CCC(=O)NCCN)CCN(CCC(=O)NCCN)CCC(=O)NCCN` [G0, PAMAM G0] the inhibition at 10000 µM (DspE [1]; read-out: % inhibition at 10 mM) was 68%.

With `O=C1OC2(c3ccc(O)cc3Oc3cc(O)ccc32)c2ccccc21` [fluorescein] the “fluorescent dye uptake, Xenopus oocytes” value (DspE [2]) was “fluorescein entered oocytes expressing DspE or AvrE, whereas eGFP could not” and the “fluorescent dye uptake, Xenopus oocytes” value (AvrE [3]) was “fluorescein entered oocytes expressing DspE or AvrE, whereas eGFP could not”.

In the case of PAMAM G1, the “% inhibition at 10 mM” value (AvrE [4]) is reported as 93%, the “% inhibition at 10 mM” value (DspE [1]; 50 mV test pulse, ND96 saline, pH 7.5, inhibitor in bath saline) is reported as 71% and the IC50 (DspE (MBP-DspE)) is reported as 31 µM.
